Assay [1] deals with E. coli RNA polymerase σ70 holoenzyme (Escherichia coli, UniProt P0A8T7+P0A8V2). Nature of the assay: Fluorescence-detected assay of inhibition of Escherichia coli RNA polymerase. The format is biochemical. The settings on record: RiboGreen fluorescence, read-out: IC50 Ec RNAP. The protocol:
(§1) Fluorescence-detected RNA polymerase assays with E. coli RNA polymerase were performed by a modification of the procedure of Kuhlman et al., 2004 (Kuhlman, P., Duff, H. & Galant, A. (2004) Anal. Biochem. 324, 183-190). Reaction mixtures contained (20 μl): 0-100 nM test compound, 75 nM E. coli RNA polymerase σ^70 holoenzyme, 20 nM 384 by DNA fragment containing the bacteriophage T4 N25 promoter, 100 μM ATP, 100 μM GTP, 100 μM UTP, 100 μM CTP, 50 mM Tris-HCl, pH 8.0, 100 mM KCl, 10 mM MgCl2, 1 mM DTT, 10 μg/ml bovine serum albumin, and 5.5% glycerol. Reaction components other than DNA and NTPs were pre-incubated for 10 mm at 37° C. Reactions were carried out by addition of DNA and incubation for 5 min at 37° C., followed by addition of NTPs and incubation for 60 min at 37° C. DNA was removed by addition of 1 μl 5 mM CaCl2 and 2 U DNaseI (Ambion, Inc.), followed by incubation for 90 min at 37° C. RNA was quantified by addition of 100 μl RiboGreen RNA Quantitation Reagent (Invitrogen, Inc.; 1:500 dilution in Tris-HCl, pH 8.0, 1 mM EDTA), followed by incubation for 10 min at 25° C., followed by measurement of fluorescence intensity [excitation wavelength=485 nm and emission wavelength=535 nm; QuantaMaster QMI spectrofluorometer (PTI, Inc.)]. IC50 was defined as the concentration of inhibitor resulting in 50% inhibition of RNA polymerase activity.

The target in assay [2] is M tuberculosis RNA polymerase core enzyme + M. tuberculosis σA (Mycobacterium tuberculosis, UniProt P9WGY7+P9WGY9). Kind of assay: Fluorescence-detected assay of inhibition of Mycobacterium tuberculosis RNA polymerase. The format is biochemical. As to conditions: read-out: IC50 Mt RNAP. How it is done: as §1
Fluorescence-detected RNA polymerase assays with M tuberculosis RNA polymerase were performed as in Example 17.1, using reaction mixtures containing (20 μl): 0-100 nM test compound, 75 nM M tuberculosis RNA polymerase core enzyme, 300 nM M. tuberculosis σ^A, 20 nM 384 by DNA fragment containing the bacteriophage T4 N25 promoter, 100 μM ATP, 100 μM GTP, 100 μM UTP, 100 μM CTP, 40 mM Tris-HCl, pH 8.0, 80 mM NaCl, 5 mM MgCl2, 2.5 mM DTT, and 12.7% glycerol. IC50 was defined as the concentration of inhibitor resulting in 50% inhibition of RNA polymerase activity.

The target in assay [3] is S. aureus RNA polymerase core enzyme + S. aureus σA (Staphylococcus aureus, UniProt P47768+Q2G0N5). Kind of assay: Fluorescence-detected assay of inhibition of Staphylococcus aureus RNA polymerase. The format is biochemical. The settings on record: read-out: IC50 Sa RNAP. How it is done:
as §1
Fluorescence-detected RNA polymerase assays with S. aureus RNA polymerase were performed as in Example 17.1, using reaction mixtures containing (20 μl): 0-100 nM test compound, 75 nM S. aureus RNA polymerase core enzyme, 300 nM S. aureus σ^A, 20 nM 384 by DNA fragment containing the bacteriophage T4 N25 promoter, 100 μM ATP, 100 μM GTP, 100 μM UTP, 100 μM CTP, 40 mM Tris-HCl, pH 8.0, 80 mM NaCl, 5 mM MgCl2, 2.5 mM DTT, and 12.7% glycerol. IC50 was defined as the concentration of inhibitor resulting in 50% inhibition of RNA polymerase activity.

Assay [4] relates to Bacillus anthracis Vollum 1B. Kind of assay: microbe, parasite or virus in culture. The format is cell-based. As to conditions: VOLLUM1B, read-out: MIC B. anthracis Vollum-1b.
Assay [5] concerns Francisella tularensis SCHU4. Kind of assay: microbe, parasite or virus in culture. The assay is classed as cell-based. The settings on record: SCHU4, read-out: MIC F. tularensis SCHU4.
For a further assay, the system named is Burkholderia mallei CHN7. Nature of the assay: microbe, parasite or virus in culture. As to conditions: CHN7, read-out: MIC B. mallei CHN7. The assay is classed as cell-based.
Assay [6] concerns Mycobacterium tuberculosis H37Rv. Nature of the assay: MIC, microplate Alamar Blue assay. The settings on record: read-out: MIC M. tuberculosis H37Rv. Background: The colour change of resazurin is a common sign of viable cells or microbes.
Assay [7] has as its system Staphylococcus aureus ATCC 12600. Nature of the assay: MIC, spiral gradient endpoint assay. As to conditions: ATCC12600, 16 h, read-out: MIC S. aureus 12600.
The subject of assay [8] is Enterococcus faecalis ATCC 19433. Nature of the assay: MIC, spiral gradient endpoint assay. As to conditions: ATCC19433, 16 h, read-out: MIC E. faecalis 19433.
For assay [9], the system named is Escherichia coli D21f2tolC. Nature of the assay: MIC, spiral gradient endpoint assay. As to conditions: 16 h, read-out: MIC E. coli D21f2tolC.
In assay [10] the test system is Haemophilus influenzae ATCC 33391. Nature of the assay: MIC, spiral gradient endpoint assay (GC II agar, 5% CO2). As to conditions: ATCC33391, read-out: MIC H. influenzae 33391.
For a further assay, the system named is H. influenzae 49247. The description is as above. The settings on record: Haemophilus influenzae, 49247, read-out: MIC H. influenzae 49247.
The subject of assay [11] is Moraxella catarrhalis ATCC 25238. The assay is described as above. As to conditions: ATCC25238, read-out: MIC M. catarrhalis 25238.

Converted amounts (≈) assume the structure as drawn.

Chain of E. coli RNA polymerase σ70 holoenzyme (P0A8V2 whole entry, the tested form may be a part): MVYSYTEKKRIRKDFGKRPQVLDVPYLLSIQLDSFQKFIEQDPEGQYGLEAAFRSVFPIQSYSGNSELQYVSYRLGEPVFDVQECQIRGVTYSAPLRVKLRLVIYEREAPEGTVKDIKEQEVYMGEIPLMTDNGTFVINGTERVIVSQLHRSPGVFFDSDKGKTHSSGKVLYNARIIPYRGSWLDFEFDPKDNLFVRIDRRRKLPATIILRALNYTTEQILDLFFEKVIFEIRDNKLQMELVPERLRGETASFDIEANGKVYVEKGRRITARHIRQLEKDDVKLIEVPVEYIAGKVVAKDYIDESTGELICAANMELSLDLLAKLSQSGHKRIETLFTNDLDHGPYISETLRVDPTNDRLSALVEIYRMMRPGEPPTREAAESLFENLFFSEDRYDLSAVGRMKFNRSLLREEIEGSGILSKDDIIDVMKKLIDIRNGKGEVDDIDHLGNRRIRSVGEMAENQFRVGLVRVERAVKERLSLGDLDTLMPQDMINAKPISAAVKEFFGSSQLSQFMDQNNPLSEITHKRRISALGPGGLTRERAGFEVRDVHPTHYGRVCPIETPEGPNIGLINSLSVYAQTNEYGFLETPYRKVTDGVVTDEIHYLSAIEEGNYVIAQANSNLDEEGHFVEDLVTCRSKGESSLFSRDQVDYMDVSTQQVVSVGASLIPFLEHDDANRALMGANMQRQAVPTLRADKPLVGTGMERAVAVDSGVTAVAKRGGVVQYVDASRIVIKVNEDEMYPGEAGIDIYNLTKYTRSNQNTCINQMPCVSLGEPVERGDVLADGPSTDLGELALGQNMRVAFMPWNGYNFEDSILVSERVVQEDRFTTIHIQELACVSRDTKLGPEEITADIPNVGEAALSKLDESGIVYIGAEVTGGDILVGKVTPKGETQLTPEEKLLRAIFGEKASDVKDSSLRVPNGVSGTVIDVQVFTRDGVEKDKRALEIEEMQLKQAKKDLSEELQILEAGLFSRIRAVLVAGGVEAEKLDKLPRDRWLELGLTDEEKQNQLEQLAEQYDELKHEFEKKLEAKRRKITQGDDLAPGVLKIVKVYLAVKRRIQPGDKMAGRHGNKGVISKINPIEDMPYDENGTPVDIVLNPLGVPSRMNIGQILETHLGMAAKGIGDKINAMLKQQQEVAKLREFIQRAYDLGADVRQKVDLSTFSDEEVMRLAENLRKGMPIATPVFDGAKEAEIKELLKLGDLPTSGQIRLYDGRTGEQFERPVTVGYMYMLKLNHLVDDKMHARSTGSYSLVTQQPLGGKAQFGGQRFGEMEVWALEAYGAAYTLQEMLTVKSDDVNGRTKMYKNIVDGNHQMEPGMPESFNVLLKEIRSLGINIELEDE
Chain of E. coli RNA polymerase σ70 holoenzyme (P0A8T7 whole entry, the tested form may be a part): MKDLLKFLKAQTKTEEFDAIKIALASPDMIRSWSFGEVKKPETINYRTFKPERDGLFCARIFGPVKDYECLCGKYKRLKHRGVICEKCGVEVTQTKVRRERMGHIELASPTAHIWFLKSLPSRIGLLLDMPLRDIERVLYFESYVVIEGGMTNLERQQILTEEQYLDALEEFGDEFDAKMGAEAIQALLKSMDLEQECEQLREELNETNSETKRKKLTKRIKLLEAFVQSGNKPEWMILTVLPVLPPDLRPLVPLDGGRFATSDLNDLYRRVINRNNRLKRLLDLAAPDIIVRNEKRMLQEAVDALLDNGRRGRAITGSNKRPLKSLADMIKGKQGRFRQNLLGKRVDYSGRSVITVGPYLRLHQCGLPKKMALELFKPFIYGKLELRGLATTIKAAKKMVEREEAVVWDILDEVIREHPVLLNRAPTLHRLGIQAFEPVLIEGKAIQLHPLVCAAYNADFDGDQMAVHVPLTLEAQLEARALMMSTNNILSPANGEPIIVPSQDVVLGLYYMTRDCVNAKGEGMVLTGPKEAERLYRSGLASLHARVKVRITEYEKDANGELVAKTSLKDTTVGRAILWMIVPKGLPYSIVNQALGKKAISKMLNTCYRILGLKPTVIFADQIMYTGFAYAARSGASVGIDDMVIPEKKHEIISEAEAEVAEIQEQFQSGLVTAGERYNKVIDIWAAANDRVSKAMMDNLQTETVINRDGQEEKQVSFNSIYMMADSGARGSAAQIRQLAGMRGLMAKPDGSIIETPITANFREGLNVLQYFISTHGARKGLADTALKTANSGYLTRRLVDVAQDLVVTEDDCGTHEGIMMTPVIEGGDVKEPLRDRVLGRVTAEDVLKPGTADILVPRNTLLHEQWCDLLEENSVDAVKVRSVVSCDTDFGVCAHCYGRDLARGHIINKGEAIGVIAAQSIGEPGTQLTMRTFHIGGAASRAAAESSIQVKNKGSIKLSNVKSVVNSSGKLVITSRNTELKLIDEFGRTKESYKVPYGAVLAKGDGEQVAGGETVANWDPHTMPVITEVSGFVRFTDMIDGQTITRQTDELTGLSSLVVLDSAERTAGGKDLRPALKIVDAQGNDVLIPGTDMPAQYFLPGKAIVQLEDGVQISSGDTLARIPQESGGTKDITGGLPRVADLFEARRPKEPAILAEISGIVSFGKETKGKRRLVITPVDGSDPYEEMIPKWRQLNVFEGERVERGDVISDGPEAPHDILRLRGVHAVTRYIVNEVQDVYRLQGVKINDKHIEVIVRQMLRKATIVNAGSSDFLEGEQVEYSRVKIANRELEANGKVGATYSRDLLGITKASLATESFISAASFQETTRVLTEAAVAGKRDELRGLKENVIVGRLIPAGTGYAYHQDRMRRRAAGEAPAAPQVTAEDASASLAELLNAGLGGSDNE
Chain of E. coli RNA polymerase σ70 holoenzyme (P0A7Z4 whole entry partner, the tested form may be a part): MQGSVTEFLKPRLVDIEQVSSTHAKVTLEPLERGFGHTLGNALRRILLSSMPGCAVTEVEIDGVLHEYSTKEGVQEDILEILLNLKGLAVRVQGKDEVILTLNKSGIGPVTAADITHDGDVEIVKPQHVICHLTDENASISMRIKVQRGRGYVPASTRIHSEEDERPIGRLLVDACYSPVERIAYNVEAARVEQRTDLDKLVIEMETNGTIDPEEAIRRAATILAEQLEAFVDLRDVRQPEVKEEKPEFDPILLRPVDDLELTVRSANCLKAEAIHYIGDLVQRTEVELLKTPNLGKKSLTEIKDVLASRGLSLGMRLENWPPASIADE
Chain of E. coli RNA polymerase σ70 holoenzyme (P0A800 whole entry partner, the tested form may be a part): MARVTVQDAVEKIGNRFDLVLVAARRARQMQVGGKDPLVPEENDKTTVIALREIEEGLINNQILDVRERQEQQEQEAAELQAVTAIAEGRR
Chain of E. coli RNA polymerase σ70 holoenzyme (P00579 whole entry partner, the tested form may be a part): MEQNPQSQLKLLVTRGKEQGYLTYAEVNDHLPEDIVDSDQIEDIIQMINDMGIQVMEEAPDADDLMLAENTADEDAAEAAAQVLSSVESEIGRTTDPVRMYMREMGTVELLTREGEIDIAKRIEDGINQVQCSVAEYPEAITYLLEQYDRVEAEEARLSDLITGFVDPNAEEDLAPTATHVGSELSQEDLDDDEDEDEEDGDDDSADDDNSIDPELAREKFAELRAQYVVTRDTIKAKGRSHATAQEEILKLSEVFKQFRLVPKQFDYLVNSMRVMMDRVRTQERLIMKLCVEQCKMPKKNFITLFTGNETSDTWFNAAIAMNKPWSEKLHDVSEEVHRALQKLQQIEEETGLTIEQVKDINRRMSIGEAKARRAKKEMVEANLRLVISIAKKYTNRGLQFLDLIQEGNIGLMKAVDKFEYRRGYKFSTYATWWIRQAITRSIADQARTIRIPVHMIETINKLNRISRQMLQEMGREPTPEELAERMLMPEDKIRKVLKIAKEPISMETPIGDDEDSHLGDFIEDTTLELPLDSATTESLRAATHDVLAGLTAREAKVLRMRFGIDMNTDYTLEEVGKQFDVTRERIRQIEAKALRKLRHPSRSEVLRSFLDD

As usually defined, the IC50 is the concentration that inhibits the measured activity by half. Turning to `COc1cccc(CCC(=O)c2c(O)cc(O)cc2O)c1` [OMTK15, 3-(3-methoxyphenyl)propanoyl-phloroglucinol], the IC50 in assay [1] turned out to be 3 µM; in assay [2] it was 3 µM; in [3], 7.2 µM. The MIC in assay [4] was 25 µg/mL (≈ 86.7 µM); in assay [5] it was 12.5 µg/mL (≈ 43.4 µM); with Burkholderia mallei CHN7 it was over 50 µg/mL; in [6], 50 µg/mL (≈ 173 µM); in [7], over 40 µg/mL; in assay [8] it was over 40 µg/mL. The MIC is 12 µg/mL (≈ 41.6 µM) in assay [9], over 40 µg/mL in [10], over 40 µg/mL in the assay with H. influenzae 49247 and over 40 µg/mL in assay [11].

The values are drawn from patent US9517994B2, “Antibacterial agents: phloroglucinol derivatives” (Rutgers, the State University of New Jersey, priority 2012, dated 2016).
